Values after ≈ are worked out from the molar mass of the structure shown. “Also recorded” adds a separate entry of the source. Read-outs that look alike come from different tables or passages of the source.
Legend:
animal tumors = assay: Inhibition of growth of animal tumors; assay type: in vivo; conditions: experimental animal tests
Excerpt: (§1) For example, BDF1 mice were inoculated intraperitoneally with 1 × 10^6 L-1210 cells/mouse and 24 hrs. after inoculation the drug was intraperitoneally injected once daily for 10 days consecutively. On day 30, the % of prolongation of the survival time to control was as follows: […]

mouse L-1210 leukemia = assay: Prolongation of survival time of mice inoculated with L-1210 leukemia; assay type: in vivo, BDF1 mice; conditions: for Prolongation of the survival time T/C: BDF1 mice, 1 × 10^6 L-1210 cells i.p., day 30; for Inhibitory effect on mouse L-1210 leukemia: in words
Excerpt: as §1

[1] = system: Ps. fluorescens NIHJB-254; assay: Minimum inhibitory concentration, broth dilution method; assay type: cell-based; conditions: for MIC: Pseudomonas fluorescens, NIHJB254, Ps. fluorescens NIHJB-254; for Minimum inhibitory concentration: Ps. fluorescens NIHJB-254
Excerpt: (§2) The minimum inhibitory concentration of the present antibiotics as determined by the broth dilution method are shown in Table 1.

Sarcina lutea ATCC 9341 = assay: as above; assay type: cell-based; conditions: for Minimum inhibitory concentration: Sarcina lutea ATCC 9341
Excerpt: as §2

B. cereus ATCC 9634 = assay: as above; assay type: cell-based; conditions: for MIC: Bacillus cereus, ATCC9634, B. cereus ATCC 9634; for Minimum inhibitory concentration: B. cereus ATCC 9634
Excerpt: as §2

[2] = system: Candida albicans IAM 4905; assay: as above; assay type: cell-based; conditions: for MIC: IAM4905, Candida albicans IAM 4905; for Minimum inhibitory concentration: Candida albicans IAM 4905
Excerpt: as §2

[3] = system: Mycobacterium smegmatis ATCC 607; assay: as above; assay type: cell-based; conditions: for MIC: Mycolicibacterium smegmatis, ATCC607, Mycobacterium smegmatis ATCC 607; for Minimum inhibitory concentration: Mycobacterium smegmatis ATCC 607
Excerpt: as §2

Staph. aureus FDA209P = assay: as above; assay type: cell-based; conditions: for MIC: Staphylococcus aureus, FDA209P
Excerpt: as §2

Micrococcus flavs = assay: as above; assay type: cell-based
Excerpt: as §2

[4] = system: B. megarterium NRRL B-938; assay: as above; assay type: cell-based
Excerpt: as §2

Candida tropicalis = assay: as above; assay type: cell-based
Excerpt: as §2

Proteus morganii = assay: as above; assay type: cell-based; conditions: for MIC: Morganella morganii
Excerpt: as §2

B. subtilis ATCC 6633 = assay: as above; assay type: cell-based; conditions: for Minimum inhibitory concentration: B. subtilis ATCC 6633
Excerpt: as §2

Coryne. bovis 1810 = assay: as above; assay type: cell-based
Excerpt: as §2

Staph. aureus Smith = assay: as above; assay type: cell-based; conditions: for MIC: Staphylococcus aureus
Excerpt: as §2

[5] = Acute toxicity, LD50 upon intraperitoneal injection; assay type: in vivo
Excerpt: The LD50 values upon intraperitoneal injection of the
antibiotics of the present invention are shown in the […]

[6] = Toxicity in experimental animal tests; assay type: in vivo
Solubility = assay type: physicochemical
gram-positive bacteria = assay: Antimicrobial activity against gram-positive bacteria; assay type: cell-based
Excerpt: as §2

animal tumor systems = conditions: reported in J. Antibiotics 27:254-259 (1974) and others; cited from earlier work
[7] = 0.06 mg./kg./day i.p. once daily for 10 days
[8] = in acidic water, DMSO, methylcellosolve, methanol, ethanol, n-propanol, n-butanol, ethyl acetate, butyl acetate, acetone, methyl ethyl ketone, methylene chloride and chloroform
[9] = in n-hexane, cyclohexane and petroleum ether
[10] = 0.125 mg./kg./day i.p. once daily for 10 days
[11] = 0.25 mg./kg./day i.p. once daily for 10 days
[12] = 0.5 mg./kg./day i.p. once daily for 10 days
[13] = 1 mg./kg./day i.p. once daily for 10 days
[14] = 2 mg./kg./day i.p. once daily for 10 days
[15] = 4 mg./kg./day i.p. once daily for 10 days
[16] = 6 mg./kg./day i.p. once daily for 10 days
[17] = 8 mg./kg./day i.p. once daily for 10 days
[18] = in acidic water, methyl cellosolve, methanol, ethanol, n-propanol and n-butanol
[19] = in ethyl acetate, acetone, methylene chloride, chloroform, carbon tetrachloride, benzene, toluene, ethyl ether and n-hexane

## COc1cccc2c1C(=O)c1c(O)c3c(c(O)c1C2=O)CC(O)(C(C)=O)CC3OC1CC(N)C(OC(CC(C)O)OC(C)CO)C(C)O1 (stereo not drawn) [BM-A1]
Animal tumors; listed as Baumycin A1
  Inhibition of growth of animal tumors / antitumor activity: inhibit the growth of various animal tumors; also recorded: marked antitumor activity; also recorded: marked inhibitory action against animal malignant tumors, especially ascitic and solid tumors
Mouse L-1210 leukemia; 0.004 mg./kg./day i.p. once daily for 10 days
  Prolongation of the survival time T/C: 131%
Mouse L-1210 leukemia; 0.008 mg./kg./day i.p. once daily for 10 days
  Prolongation of the survival time T/C: 131%
Mouse L-1210 leukemia; 0.015 mg./kg./day i.p. once daily for 10 days
  Prolongation of the survival time T/C: 155%
Mouse L-1210 leukemia; 0.03 mg./kg./day i.p. once daily for 10 days
  Prolongation of the survival time T/C: 187%
Mouse L-1210 leukemia; [7]
  Prolongation of the survival time T/C: > 300%
Mouse L-1210 leukemia
  Inhibitory effect on mouse L-1210 leukemia: marked inhibitory effects
[1]
  MIC: > 100 µg/mL
Sarcina lutea ATCC 9341
  Minimum inhibitory concentration: 0.78 µg/mL (≈ 1.16 µM)
B. cereus ATCC 9634
  MIC: 1.56 µg/mL (≈ 2.32 µM)
[2]
  MIC: 100 µg/mL (≈ 148 µM)
[3]
  MIC: 6.25 µg/mL (≈ 9.28 µM)
Staph. aureus FDA209P
  MIC: 1.56 µg/mL (≈ 2.32 µM)
Micrococcus flavs; Micrococcus, read-out: Minimum inhibitory concentration, Micrococcus flavs
  MIC: 0.78 µg/mL (≈ 1.16 µM)
[4]
  Minimum inhibitory concentration: 1.56 µg/mL (≈ 2.32 µM)
Candida tropicalis
  MIC: 100 µg/mL (≈ 148 µM)
Proteus morganii
  MIC: > 100 µg/mL
B. subtilis ATCC 6633
  Minimum inhibitory concentration: 0.78 µg/mL (≈ 1.16 µM)
Coryne. bovis 1810
  Minimum inhibitory concentration: 1.56 µg/mL (≈ 2.32 µM)
Staph. aureus Smith
  MIC: 0.78 µg/mL (≈ 1.16 µM)
[5]
  LD50: 1.5 to 2.5 mg/kg
[6]
  Toxicity: low toxicity
Solubility; [8]
  Solubility: Soluble
Solubility; [9]
  Solubility: Insoluble
Solubility; in water
  Solubility: Insoluble
gram-positive bacteria; listed as Baumycin A1
  Antimicrobial activity: inhibit the growth of gram-positive bacteria; also recorded: possess antimicrobial activity, especially against gram-positive bacteria

## COc1cccc2c1C(=O)c1c(O)c3c(c(O)c1C2=O)CC(O)(C(C)=O)CC3OC1CC(N)C(OC(CC(C)O)OC(C)CO)C(C)O1 (stereo not drawn) [BM-A2]
Animal tumors; listed as Baumycin A2
  Inhibition of growth of animal tumors / antitumor activity: inhibit the growth of various animal tumors; also recorded: marked antitumor activity; also recorded: marked inhibitory action against animal malignant tumors, especially ascitic and solid tumors
Mouse L-1210 leukemia; [7]
  Prolongation of the survival time T/C: 141%
Mouse L-1210 leukemia; [10]
  Prolongation of the survival time T/C: 151%
Mouse L-1210 leukemia; [11]
  Prolongation of the survival time T/C: 163%
Mouse L-1210 leukemia; [12]
  Prolongation of the survival time T/C: 173%
Mouse L-1210 leukemia; [13]
  Prolongation of the survival time T/C: 167%
Mouse L-1210 leukemia
  Inhibitory effect on mouse L-1210 leukemia: marked inhibitory effects
[1]
  Minimum inhibitory concentration: 100 µg/mL (≈ 148 µM)
Sarcina lutea ATCC 9341
  Minimum inhibitory concentration: 3.12 µg/mL (≈ 4.63 µM)
B. cereus ATCC 9634
  Minimum inhibitory concentration: 3.12 µg/mL (≈ 4.63 µM)
[2]
  Minimum inhibitory concentration: 100 µg/mL (≈ 148 µM)
[3]
  Minimum inhibitory concentration: 12.5 µg/mL (≈ 18.6 µM)
Staph. aureus FDA209P
  Minimum inhibitory concentration: 3.12 µg/mL (≈ 4.63 µM)
Micrococcus flavs; Micrococcus flavs
  Minimum inhibitory concentration: 1.56 µg/mL (≈ 2.32 µM)
[4]
  Minimum inhibitory concentration: 6.25 µg/mL (≈ 9.28 µM)
Candida tropicalis
  Minimum inhibitory concentration: 100 µg/mL (≈ 148 µM)
Proteus morganii
  Minimum inhibitory concentration: > 100 µg/mL
B. subtilis ATCC 6633
  Minimum inhibitory concentration: 3.12 µg/mL (≈ 4.63 µM)
Coryne. bovis 1810
  Minimum inhibitory concentration: 6.25 µg/mL (≈ 9.28 µM)
Staph. aureus Smith
  Minimum inhibitory concentration: 1.56 µg/mL (≈ 2.32 µM)
[5]
  LD50: 15 to 20 mg/kg
[6]
  Toxicity: low toxicity
Solubility; [8]
  Solubility: Soluble
Solubility; [9]
  Solubility: Insoluble
Solubility; in water
  Solubility: Insoluble
gram-positive bacteria; listed as Baumycin A2
  Antimicrobial activity: inhibit the growth of gram-positive bacteria; also recorded: possess antimicrobial activity, especially against gram-positive bacteria

## COc1cccc2c1C(=O)c1c(O)c3c(c(O)c1C2=O)CC(O)(C(C)=O)CC3OC1CC(N)C(OC(CC(C)O)OC(C)C(=O)O)C(C)O1 (stereo not drawn) [BM-B1]
Animal tumors; listed as Baumycin B1
  Inhibition of growth of animal tumors / antitumor activity: inhibit the growth of various animal tumors; also recorded: marked antitumor activity; also recorded: marked inhibitory action against animal malignant tumors, especially ascitic and solid tumors
Mouse L-1210 leukemia; [10]
  Prolongation of the survival time T/C: 93%
Mouse L-1210 leukemia; [11]
  Prolongation of the survival time T/C: 99%
Mouse L-1210 leukemia; [12]
  Prolongation of the survival time T/C: 99%
Mouse L-1210 leukemia; [13]
  Prolongation of the survival time T/C: 105%
Mouse L-1210 leukemia; [14]
  Prolongation of the survival time T/C: 117%
Mouse L-1210 leukemia; [15]
  Prolongation of the survival time T/C: 136%
Mouse L-1210 leukemia; [16]
  Prolongation of the survival time T/C: 165%
Mouse L-1210 leukemia; [17]
  Prolongation of the survival time T/C: 147%
Mouse L-1210 leukemia
  Inhibitory effect on mouse L-1210 leukemia: marked inhibitory effects
[1]
  MIC: 100 µg/mL (≈ 145 µM)
Sarcina lutea ATCC 9341; Micrococcus luteus, ATCC9341, Sarcina lutea ATCC 9341
  MIC: 50 µg/mL (≈ 72.7 µM)
B. cereus ATCC 9634
  MIC: 100 µg/mL (≈ 145 µM)
[2]; Candida albicans
  MIC: 100 µg/mL (≈ 145 µM)
[3]
  MIC: 100 µg/mL (≈ 145 µM)
Staph. aureus FDA209P
  MIC: 50 µg/mL (≈ 72.7 µM)
Micrococcus flavs; Micrococcus flavs, read-out: Minimum inhibitory concentration
  MIC: 50 µg/mL (≈ 72.7 µM)
[4]
  MIC: 100 µg/mL (≈ 145 µM)
Candida tropicalis
  MIC: 100 µg/mL (≈ 145 µM)
Proteus morganii
  MIC: > 100 µg/mL
B. subtilis ATCC 6633; Bacillus subtilis, ATCC6633, B. subtilis ATCC 6633
  MIC: 100 µg/mL (≈ 145 µM)
Coryne. bovis 1810; Corynebacterium bovis
  MIC: 50 µg/mL (≈ 72.7 µM)
Staph. aureus Smith
  MIC: 50 µg/mL (≈ 72.7 µM)
[5]; in vivo, ip, read-out: LD50
  LD50: 40 to 60 mg/kg
[6]
  Toxicity: low toxicity
Solubility; [18]
  Solubility: Soluble
Solubility; [19]
  Solubility: Insoluble
Solubility; in water, listed as Baumycin B1
  Solubility: Insoluble
gram-positive bacteria; listed as Baumycin B1
  Antimicrobial activity: inhibit the growth of gram-positive bacteria; also recorded: possess antimicrobial activity, especially against gram-positive bacteria

## COc1cccc2c1C(=O)c1c(O)c3c(c(O)c1C2=O)CC(O)(C(C)=O)CC3OC1CC(N)C(OC(CC(C)O)OC(C)C(=O)O)C(C)O1 (stereo not drawn) [BM-B2]
Animal tumors; listed as Baumycin B2
  Inhibition of growth of animal tumors / antitumor activity: inhibit the growth of various animal tumors; also recorded: marked antitumor activity; also recorded: marked inhibitory action against animal malignant tumors, especially ascitic and solid tumors
Mouse L-1210 leukemia; [13]
  Prolongation of the survival time T/C: 99%
Mouse L-1210 leukemia; [14]
  Prolongation of the survival time T/C: 99%
Mouse L-1210 leukemia; [15]
  Prolongation of the survival time T/C: 111%
Mouse L-1210 leukemia; [16]
  Prolongation of the survival time T/C: 135%
Mouse L-1210 leukemia; [17]
  Prolongation of the survival time T/C: 155%
Mouse L-1210 leukemia
  Inhibitory effect on mouse L-1210 leukemia: marked inhibitory effects
[1]
  Minimum inhibitory concentration: > 100 µg/mL
Sarcina lutea ATCC 9341
  Minimum inhibitory concentration: 25 µg/mL (≈ 36.4 µM)
B. cereus ATCC 9634
  Minimum inhibitory concentration: > 100 µg/mL
[2]
  Minimum inhibitory concentration: > 100 µg/mL
[3]
  Minimum inhibitory concentration: > 100 µg/mL
Staph. aureus FDA209P
  Minimum inhibitory concentration: 100 µg/mL (≈ 145 µM)
Micrococcus flavs; Micrococcus flavs
  Minimum inhibitory concentration: 50 µg/mL (≈ 72.7 µM)
[4]
  Minimum inhibitory concentration: > 100 µg/mL
Candida tropicalis
  Minimum inhibitory concentration: > 100 µg/mL
Proteus morganii
  Minimum inhibitory concentration: > 100 µg/mL
B. subtilis ATCC 6633
  Minimum inhibitory concentration: > 100 µg/mL
Coryne. bovis 1810
  Minimum inhibitory concentration: 50 µg/mL (≈ 72.7 µM)
Staph. aureus Smith
  Minimum inhibitory concentration: 50 µg/mL (≈ 72.7 µM)
[5]
  LD50: 75 to 100 mg/kg
[6]
  Toxicity: low toxicity
Solubility; [18]
  Solubility: Soluble
Solubility; [19]
  Solubility: Insoluble
Solubility; in water, listed as Baumycin B2
  Solubility: soluble
gram-positive bacteria; listed as Baumycin B2
  Antimicrobial activity: inhibit the growth of gram-positive bacteria; also recorded: possess antimicrobial activity, especially against gram-positive bacteria

## CC(=O)[C@]1(O)Cc2c(O)c3c(c(O)c2[C@@H](O[C@H]2C[C@H](N)[C@H](O)[C@H](C)O2)C1)C(=O)c1c(O)cccc1C3=O [carminomycin]
Animal tumor systems
  Activity in animal tumor systems: active in several animal tumor systems

Source: patent US4147778A, “Antibiotic baumycin complex and components thereof” (Zaidan Hojin Biseibutsu Kagaku Kenkyu Kai, priority 1976, dated 1979)
